Patent US20140302027A1, “METHODS OF TREATING PERIODONTAL INFLAMMATION AND PERIODONTAL BONE LOSS” (United States of America as Represented by the Secretary, …, priority 2011, published 2014)

Experiments:
[1] = system: ligature-induced periodontal bone loss; assay: Ligature-induced periodontitis model, periodontal bone loss; type: in vivo, mice; settings: for inhibition of induction of bone loss relative to no-treatment: 1 μg microinjected in gingiva daily (FIG. 26a)
Experimental: FIG. 26. Inhibition of bone loss by Del-1 and other treatments that block LFA-1 or IL-17. Ligature-induced periodontal bone loss was assessed in mice treated as follows: (a) 18-month-old (left) and 10-week-old mice (right) were microinjected in the gingiva with Del-1-Fc or Fc control (1 μg) or with anti-IL-17A mAb or isotype control (1 or 10 μg). (b) WT and Itgal^−/− mice received Del-1-Fc or Fc control as above. (c) LFA878 was locally administered at an equal molar concentration with Del-1-Fc (corresponding to 8.4 ng and 1 μg, respectively) or at the indicated higher doses. (d) Anti-LFA-1 or IgG2a control were microinjected at either 1 μg, as was Del-1-Fc, or at 10 μg. (e) Del-1-Fc, anti-LFA-1, anti-ICAM-1, ICAM-1-Fc and their controls were i.v. administered at 50 μg. Data are means±SD (n=5-6 mice per group) from one of two (a,c,e) or three (b,d) independent and representative experiments. Data represent % inhibition of bone loss, which was calculated using the formula: ([Bone loss in the absence of inhibitor−Bone loss in the presence of inhibitor]/Bone loss in the absence of inhibitor)×100. *P<0.05; **P<0.01. NS, not significant.
The ligature-induced periodontitis model was used to determine the efficacy of potential therapeutic interventions (see below). Specifically, bone loss was induced by tying a 5-0 silk ligature around the maxillary left second molar, placing the ligature in the gingival sulcus; this treatment induces bone loss in conventional (but not germ-free) mice due to massive bacterial accumulation in the ligated teeth (Graves (2008)). The contralateral molar tooth in each mouse was left unligated (baseline control). Bone loss was examined 5 days after placement of the ligatures, which remained in place in all mice during the experimental period. Using the VIA-170K system, bone measurements were performed on the ligated second molar (3 sites corresponding to mesial cusp, palatal groove, and distal cusp) and the affected adjacent regions (sites corresponding to distal cusp and distal groove of the first molar, and palatal cusp of the third molar). To calculate bone loss, the 6-site total CEJ-ABC distance for the ligated side of each mouse was subtracted from the 6-site total CEJ-ABC distance of the contralateral unligated side of the same mouse.
To determine its protective efficacy in ligature-induced periodontitis, Del-1 was used in the form of a fusion protein with the Fc region of human IgG1 (Del-1-Fc) (GenScript). Del-1-Fc (1 μg) was microinjected into the palatal gingiva of the ligated second maxillary molar, one day before placement of the ligature and every day thereafter until the day before sacrifice on day 5. In other experiments, Del-1-Fc was administered systemically by i.v. injection (50 μg), following the same timing schedule as above. The same protocols were used to determine the effect of local (or systemic) administration of mAbs to LFA-1 (clone M17/4, rat IgG2a; BioLegend), ICAM-1 (clone YN1, IgG2b; Biolegend), IL-17A (clone M210, rat IgG2a; Amgen), or IL-17F (clone 316016, rat IgG2a; R&D Systems). Recombinant mouse ICAM-1 fused to the Fc region of human IgG1 (ICAM-1-Fc) as well as an LFA-1 antagonist (LFA878; kindly provided by Novartis) (Weitz-Schmidt (2004)) were also used in bone loss inhibition experiments. Purified azide-free rat IgG2a or IgG2b (BioLegend) and recombinant human IgG1 Fc (R&D Systems) were used as controls for the mAbs and Del-1-Fc, respectively.

[2] = system: P. gingivalis (Pg)-induced bone loss; assay: P. gingivalis-induced periodontal bone loss mouse model; type: in vivo, mice; settings: local gingival injections (FIG. 2C)
[3] = system: Del-1 expression in human endothelial cells; assay: Del-1 mRNA expression in HUVEC stimulated with human IL-17A; type: cell-based
Source text: FIG. 21. IL-17 downregulates Del-1 expression. (a) Gingival Del-1 mRNA expression in wild-type (WT) and IL17ra^−/− mice determined by qPCR. (b) Sagittal sections of interdental gingiva of WT and Il17ra^−/− mice were stained for Del-1; shown are representative fluorescent confocal images (upper row) and their overlays with corresponding DIC images (lower row). Bar, 50 μm; T, tooth; G, gingiva; S, sulcus. (c) The fluorescence intensities of these and additional representative images from independent mice (5 per group) were quantified using ImageJ analysis. (d) Anti-IL-17A mAb and IgG2a control were microinjected into the gingiva and Del-1 mRNA expression was determined by qPCR. (e) Gingival IL-17A mRNA expression was determined in young (8-10 weeks) and old (18 months) mice using qPCR. (f) Linear-regression analysis of Del-1 versus IL-17A expression in old mice. (g) Determination of Del-1 mRNA expression and MPO amounts in the gingiva of indicated BM chimeric mice (donor BM→lethally irradiated recipient). (h) HUVEC were stimulated with or without human IL-17A and Del-1 mRNA expression was quantified by qPCR (pooled data from four independent experiments). […]
Total RNA was extracted from excised gingival tissue or cultured cells using the PerfectPure RNA cell kit (5 Prime, Fisher) and quantified by spectrometry at 260 and 280 nm. […]

human neutrophils = assay: Transmigration assay of human neutrophils through HUVEC monolayer; type: cell-based; settings: 5 μg/ml, towards IL-8 (20 ng/ml)
Experimental: FIG. 14. LFA-1 dependence of Del-1 deficiency-associated inflammation and bone loss. (a) Twenty-week-old C57BL/6 wild-type (WT) mice or mice deficient in the indicated molecules were assessed for bone loss relative to 5-week-old WT mice (zero baseline); the dotted line indicates the bone heights of 20-week-old WT mice for ease of comparison. (b) Sagittal sections of interdental gingiva from the same mice were stained for Ly6G; shown are representative overlays of DIC and fluorescent confocal images. (c) The fluorescence intensities of these and additional representative images from independent mice (5 per group) were quantified using ImageJ analysis. (d) Dissected gingiva from the indicated mice were processed for ELISA determination of MPO protein (left) or qPCR determination of PGRP1 transcript abundance (right). (e) Transmigration of human neutrophils through an endothelial cell monolayer (HUVEC) towards IL-8 (20 ng/ml) in the bottom well was determined with or without soluble human Del-1 (5 μg/ml), BSA (5 μg/ml), anti-LFA-1 mAb (10 μg/ml) or IgG1 control (10 μg/ml). […]
Transmigration assays were performed as previously described (Ley (2007)), using 6.5-mm Transwells with an 8-μm pore size (Corning). […] After 60 min incubation at 37° C., the number of transmigrated cells in the lower compartment was measured (Ley (2007)). […]

`CC[C@H](C)C(=O)O[C@H]1C[C@@H](C)C=C2C=C[C@H](C)[C@H](CC[C@@H]3C[C@H](CC(=O)NC)N(Cc4ccc(O)c(OC)c4)C(=O)O3)[C@H]21` [LFA878, reference compound] was tested, and the “protection against bone loss compared with Del-1-Fc” value ([1]; local, equal molar amounts (8.4 ng vs 1 μg Del-1-Fc) (FIG. 26c)) was “less protective than Del-1-Fc” and the “protection against bone loss compared with Del-1-Fc” value ([1]; locally administered at 1 μg (FIG. 26c)) was “almost (but not quite) comparable to Del-1-Fc”.

In the case of `O=C(NCc1cccc(O)c1)c1cc(Cl)c(C(=O)N[C@@H](CNC(=O)c2cc(O)cc(O)c2)C(=O)O)c(Cl)c1` [XVA143], the “P. gingivalis (Pg)-induced bone loss” value [2] is reported as “inhibited”.

For “Del-1-Fc: Del-1 as a fusion protein with the Fc region of human IgG1 (GenScript); SEQ ID NO: 5”, the “inhibition of induction of bone loss relative to no-treatment” value ([1]; 10-week-old mice) was “≈ 80%”, the “inhibition of bone loss” value ([1]; 18-month old mice, microinjected in palatal gingiva daily from day -1 to day 4 (FIG. 7)) was “significant inhibition of bone loss” and the “inhibition of induction of bone loss relative to no-treatment” value ([1]; 18-month-old mice) was “inhibited”. For the same molecule, the “effect against bone loss” value ([1]; Itgal−/− mice (LFA-1 deficient), local (FIG. 26b)) was “minor, but not statistically significant, effect” and the “potency in inhibiting periodontal bone loss versus other LFA-1-ICAM-1 inhibitors” value ([1]; given locally or systemically) was “more potent”.

In the case of “human IL-17A: human IL-17A cytokine used to stimulate HUVEC”, the “Del-1 expression in human endothelial cells (HUVEC)” value [3] is reported as “inhibited”.

B1: human Del-1: soluble human Del-1 from R&D Systems; human Del-1 amino acid sequence SEQ ID NO: 1 (protein, listed as Homo sapiens)
chain: MKRSVAVWLLVGLSLSVPQFGKGDICDPNPCENGGICLPGLADGSFSCECPDGFTDPNCSSVVEVASDEEEPTSAGPCTPNPCHNGGTCEISEAYRGDTFIGYVCKCPRGFNGIHCQHNINECEVEPCKNGGICTDLVANYSCECPGEFMGRNCQYKCSGPLGIEGGIISNQQITASSTHRALFGLQKWYPYYARLNKKGLINAWTAAENDRWPWIQINLQRKMRVTGVITQGAKRIGSPEYIKSYKIAYSNDGKTWAMYKVKGTNEDMVFRGNIDNNTPYANSFTPPIKAQYVRLYPQVCRRHCTLRMELLGCELSGCSEPLGMKSGHIQDYQITASSIFRTLNMDMFTWEPRKARLDKQGKVNAWTSGHNDQSQWLQVDLLVPTKVTGIITQGAKDFGHVQFVGSYKLAYSNDGEHWTVYQDEKQRKDKVFQGNFDNDTHRKNVIDPPIYARHIRILPWSWYGRITLRSELLGCTEEE
With B1 the “LFA-1-dependent transendothelial migration of human neutrophils” value (human neutrophils) was “inhibited”.
